Key:
[1] = target: human Histamine H3 receptor (hH3R) (Homo sapiens (Human), UniProt Q9Y5N1); test: Guanosine 5'-O-(3-[35S]thio)triphosphate [GTPγS] binding assay; format: biochemical; conditions: antagonist mode vs (R)-α-methyl histamine 30 nM; membranes from CHO cells expressing hH3R
Method: (§1) The IC50 and nH can be determined by fitting the data to model 205 in XLfit: y=A+((B−A)/(1+((C/x)^D)). Guanosine 5′-O-(3-[^35S]thio)triphosphate [GTPγS] Binding Assay
A GTPγS binding assay can be used to investigate antagonist properties of compounds in CHO cells (Chinese Hamster Ovary) transfected with human Histamine H3 receptor (hH3R). Membranes from CHO cells expressing hH3R (10 μg/well) are diluted in GTPγS assay buffer (20 mM Hepes, 10 mM MgCl2, 100 mM NaCl, pH 7.4) and preincubated with saponine (3 μg/ml), GDP (10 μM) and PVT-WGA SPA beads (125 μg/well) (Amersham) for 30 minutes. To determine antagonist activity, (R)-α-methyl histamine (30 nM) is added in 96 well SPA plate with [^35S]GTPγS (0.2 nM) and various concentration of H3R antagonists. The GTPγS binding assay is started with addition of the mixture membrane/saponine/GDP and incubated for 90 minutes at room temperature. The amount of bound [^35S]GTPγS is determined by using the MicroBeta Trilux counter (PerkinElmer). The percentage of [^35S]GTPγS bound in each sample is calculated as a percentage of that bound control sample incubated in absence of H3 antagonist. Duplicate determinations are obtained for each concentration, and the data are analyzed using ExcelFit4 to obtain the IC50.

[2] = target: human histamine H3 receptors (Homo sapiens (Human), UniProt Q9Y5N1); test: Histamine H3 SPA with the agonist radioligand [3H]-N-α-methylhistamine (hH3 binding); conditions: inhibition of [3H]-N-α-methylhistamine (1.4 nM) binding to CHO-K1 membranes expressing full-length human H3 (isoform 445)
Chain of human histamine H3 receptors (Q9Y5N1 whole entry, canonical isoform): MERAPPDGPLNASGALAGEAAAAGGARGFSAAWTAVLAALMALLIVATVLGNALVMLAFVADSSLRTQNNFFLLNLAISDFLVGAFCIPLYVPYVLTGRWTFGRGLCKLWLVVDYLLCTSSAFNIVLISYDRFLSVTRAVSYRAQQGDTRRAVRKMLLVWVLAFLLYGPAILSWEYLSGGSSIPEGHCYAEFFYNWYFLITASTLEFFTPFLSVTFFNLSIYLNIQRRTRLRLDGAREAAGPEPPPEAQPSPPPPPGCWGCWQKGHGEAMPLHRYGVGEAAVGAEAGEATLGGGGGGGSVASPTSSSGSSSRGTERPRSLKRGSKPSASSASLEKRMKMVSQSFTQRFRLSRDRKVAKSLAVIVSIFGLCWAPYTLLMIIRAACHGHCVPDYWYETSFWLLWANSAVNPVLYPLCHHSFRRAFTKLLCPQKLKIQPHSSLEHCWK
Method: Histamine H3 SPA with the Agonist Radioligand [^3H]-N-α-Methylhistamine
The H3 binding assay was/can be used to evaluate the ability of at least one compound in accordance with formula I, Ia, Ib, and/or Ic to inhibit [^3H]-N-α-methylhistamine binding to CHO-K1 membranes expressing human histamine H3 receptors (full-length H3, the most prevalent brain isoform 445). In 200 μl 96-well SPA format, human H3 membranes (12.5 μg protein/well) and 1.4 nM [^3H]-N-α-methylhistamine were/can be incubated with at least one compound in accordance with formula I, Ia, Ib, and/or Ic for 1.5 hrs to determine percent effect with respect to total (1% DMSO) and non-specific binding (10 μM imetit). […] Single poke (SP) testing can be done in triplicate.
Membranes, prepared from CHO-K1 cells stably expressing the human histamine H3 receptor, can be obtained from ACS.
Tested formula I, Ia, Ib, and/or Ic compounds were/can be provided as solubilized samples in neat DMSO. Serial dilutions were/can be performed in DMSO.
Plates were/can be 96-well Unifilter GF/B (Perkin Elmer, 6005177). Plates were/can be read on a Perkin Elmer TopCount. CPM data was/can be used to analyze unless DPM data generated by a quench curve was/is required.
• 1. 1 mg/ml BSA was/can be added to assay buffer (AB) on day of assay. • 2. Amounts required for bead/membrane pool in AB were/can be calculated: “P”−need 17.1 ml/assay plate+10 ml PlateMate excess. Buffer volume was/can be split between beads and membranes to allow for polytroning of membranes prior to addition to beads. • a. […] A minimum of 15 minutes was/can be waited prior to adding membranes (See b. below). • b. Membranes (hH3 membranes from CHO cells containing recombinant human H3 receptors, 11.7 mg/ml): membranes were/can be removed from −80° C. and thawed in RT waterbath. (0.0702 mg/ml×P) mg of membranes were/can be resuspended in the remaining volume not used with beads above for 12.5 μg/well final and homogenized briefly at polytron speed 5.0. The homogenized membrane mixture was/can be combined with the beads and a minimum of 30 minutes was/can be waited prior to dispensing to plate. • 3. Formula I, Ia, Ib, and/or Ic compounds: For Single Poke, 2 μl mM of a compound in accordance with formula I, Ia, Ib, and/or Ic was/can be dispensed to Optiplates (triplicate plates) for final a concentration of 10 μM. […] Imetit (see below) was/can be used as a control. • 4. […] [^3H]-N-α-methylhistamine ([^3H]-NAMH): A solution in AB at 14 nM, 10× final concentration of 1.4 nM was/can be prepared. 5 μl samples were/can be calculated in quadruplicate on the 13 counter. If concentration was/is 12-14.5 nM, no adjustment was/is may be required. (For IC50s, use final concentration on calculation tab of ABase template.) Assay • 1. […] 2 μl of the formula I, Ia, Ib, and/or Ic compound dilution was/can be mixed and then transferred into assay plates. DMSO was/can be removed and 2 μl of 100 μM Imetit was/can be added to the wells. • 3. 178 μl bead/membrane mixture was/can be dispensed into the assay plate. • 4. 20 μl [^3H]-NAMH was/can be added with Rapid Plate. The assay plate was/can be sealed and incubated for 1.5 hr on RT shaker at speed ˜6.5. • 5. The assay plate was/can be subsequently centrifuged at 1000 rpm for 10 minutes. • 6. The count was/can be performed on TopCount using one of the 3H SPA H3 Quench programs.
The DPM data was/can be analyzed when tSIS was/is less than that associated with 70% of full scale on the quench curve (tSIS<25%). Otherwise, CPM data was/is used.
as §1

Chain of human Histamine H3 receptor (hH3R) (Q9Y5N1 whole entry): as the sequence (Q9Y5N1 whole entry, canonical isoform) above

Row | SMILES | IC50 [1] | IC50 [2]
1 | CCCN1CCN(C(=O)[C@H]2C[C@@H]2c2ccccc2)CC1 (relative stereo) [Example 7, trans-(2-Phenylcyclopropyl)-(4-propylpiperazin-1-yl)methanone] | 39.7 nM | 146 nM
2 | O=C([C@H]1C[C@@H]1c1ccc(N2CCCC2=O)cc1)N1CCN(C2CCC2)CC1 (relative stereo) [Example 17, trans-1-{4-[2-(4-Cyclobutylpiperazine-1-carbonyl)cyclopropyl]phenyl}pyrrolidin-2-one] | 196 nM | 433 nM
3 | O=C([C@H]1C[C@@H]1c1ccc(-c2cn[nH]c2)cc1)N1CCN(C2CCC2)CC1 (relative stereo) [Example 20, trans-{2-[4-(1H-Pyrazol-4-yl)phenyl]cyclopropyl}-(4-cyclobutylpiperazin-1-yl)methanone] | 33.9 nM | 29.1 nM
4 | CS(=O)(=O)Nc1cccc([C@@H]2C[C@H]2C(=O)N2CCN(C3CCC3)CC2)c1 (relative stereo) [Example 30, trans-N-{3-[2-(4-Cyclobutylpiperazine-1-carbonyl)cyclopropyl]phenyl}methanesulfonamide] | 8.59 nM | 
5 | O=C([C@H]1C[C@@H]1c1cccc(N2CCCC2=O)c1)N1CCN(C2CCC2)CC1 (relative stereo) [Example 34, trans-1-(3-(2-(4-Cyclobutylpiperazine-1-carbonyl)cyclopropyl)phenyl)pyrrolidin-2-one] | 23.9 nM | 5.09 nM
6 | NC(=O)c1ccc([C@@H]2C[C@H]2C(=O)N2CCN(C3CCC3)CC2)cc1 (relative stereo) [Example 42, 4-((trans)-2-(4-cyclobutylpiperazine-1-carbonyl)cyclopropyl)benzamide] | 5.83 nM | 14.4 nM
7 | NC(=O)c1cccc([C@@H]2C[C@H]2C(=O)N2CCN(C3CCC3)CC2)c1 (single isomer, unassigned; enantiomer 1) [Example 36, 3-((trans)-2-(4-cyclobutylpiperazine-1-carbonyl)cyclopropyl)benzamide, enantiomer 1] | 6.19 nM | 
8 | O=C([C@@H]1C[C@H]1c1cccc(N2CCCC2=O)c1)N1CCN(C2CCC2)CC1 (single isomer, unassigned; enantiomer 1) [Example 38, 1-(3-((trans)-2-(4-cyclobutylpiperazine-1-carbonyl)cyclopropyl)phenyl)pyrrolidin-2-one, enantiomer 1] | 11.6 nM | 
9 | O=C([C@@H]1C[C@H]1c1cccc(N2CCCCC2=O)c1)N1CCN(C2CCC2)CC1 (single isomer, unassigned; enantiomer 1) [Example 40, 1-(3-((trans)-2-(4-cyclobutylpiperazine-1-carbonyl)cyclopropyl)phenyl)piperidin-2-one, enantiomer 1] | 18.2 nM | 
10 | NC(=O)c1ccc([C@@H]2C[C@H]2C(=O)N2CCN(C3CCC3)CC2)cc1 (single isomer, unassigned; enantiomer 1) [Example 43, 4-((trans)-2-(4-cyclobutylpiperazine-1-carbonyl)cyclopropyl)benzamide, enantiomer 1] | 3.81 nM | 
11 | NC(=O)c1cccc([C@@H]2C[C@H]2C(=O)N2CCN(C3CCC3)CC2)c1 (single isomer, unassigned; enantiomer 2) [Example 37, 3-((trans)-2-(4-cyclobutylpiperazine-1-Carbonyl)cyclopropyl)benzamide, enantiomer 2] | > 1050 nM | 
12 | O=C([C@@H]1C[C@H]1c1cccc(N2CCCC2=O)c1)N1CCN(C2CCC2)CC1 (single isomer, unassigned; enantiomer 2) [Example 39, 1-(3-((trans)-2-(4-cyclobutylpiperazine-1-carbonyl)cyclopropyl)phenyl)pyrrolidin-2-one, enantiomer 2] | > 1800 nM | 
13 | O=C([C@@H]1C[C@H]1c1cccc(N2CCCCC2=O)c1)N1CCN(C2CCC2)CC1 (single isomer, unassigned; enantiomer 2) [Example 41, 1-(3-((trans)-2-(4-cyclobutylpiperazine-1-carbonyl)cyclopropyl)phenyl)piperidin-2-one, enantiomer 2] | 733 nM | 
14 | NC(=O)c1ccc([C@@H]2C[C@H]2C(=O)N2CCN(C3CCC3)CC2)cc1 (single isomer, unassigned; enantiomer 2) [Example 44, 4-((trans)-2-(4-cyclobutylpiperazine-1-carbonyl)cyclopropyl)benzamide, enantiomer 2] | 834 nM | 
15 | O=C([C@H]1C[C@@H]1c1ccc(Br)cc1)N1CCN(C2CCC2)CC1 [Example 14, (1S,2S)-(2-(4-bromophenyl)cyclopropyl)(4-cyclobutylpiperazin-1-yl)methanone] | 6.81 nM | 16.8 nM
16 | O=C([C@@H]1C[C@H]1c1ccc(Br)cc1)N1CCN(C2CCC2)CC1 [Example 15, (1R,2R)-(2-(4-bromophenyl)cyclopropyl)(4-cyclobutylpiperazin-1-yl)methanone] | 262 nM | 3400 nM
17 | O=C([C@H]1C[C@@H]1c1ccccc1)N1CCN(C2CCC2)CC1 [Example 24, (4-cyclobutylpiperazin-1-yl)((1S,2S)-2-phenylcyclopropyl)methanone] | 3.41 nM | 3.49 nM
18 | O=C([C@@H]1C[C@H]1c1ccccc1)N1CCN(C2CCC2)CC1 [Example 25, (4-cyclobutylpiperazin-1-yl)((1R,2R)-2-phenylcyclopropyl)methanone] | 870 nM | 6420 nM
19 | CC(C)N1CCN(C(=O)C2CC2c2cnn(C)c2)CC1 (centres unmarked) [Example 45, (4-isopropylpiperazin-1-yl)(2-(1-methyl-1H-pyrazol-4-yl)cyclopropyl)methanone] | 127 nM | 
20 | O=C([C@H]1C[C@@H]1c1ccc(-c2cncnc2)cc1)N1CCN(C2CCC2)CC1 [Example 46, (4-cyclobutylpiperazin-1-yl)((1S,2S)-2-(4-(pyrimidin-5-yl)phenyl)cyclopropyl)methanone] | 20.2 nM | 

From patent US9029381B2, “Cyclopropyl amide derivatives” (Astrazeneca AB, priority 2007, dated 2015)
